{
  "source": "patent US6465187B1",
  "about": "“Method of treatment” (Innoventus Project AB, priority 2000, dated 2002)",
  "key": {"MCP5/L cells [1]": {"tested_on": "MCP5/L cells", "settings": "IgE-receptor cross-linkage 30 min, various concentrations of EDTA, FIG. 8B", "method": "Activation of mast cells in vitro. For FcεRI-dependent activation, MCP5/L cells were resuspended at 1×10^6 cells/ml and sensitized using a monoclonal murine IgE anti-TNP (trinitrophenyl) (IgEl-b4, ATCC, Manassas, Va.) antibody (15% hybridoma supernatant) for 90 min. The cells were washed twice with warm medium, followed by challenge with 1 μg/ml TNP-BSA for time periods indicated. For cell viability assays, both the anitbody sensitization and the anitgen challenge were performed in RPMI medium supplemented with 0.5% BSA (Sigma) at 37° C. in a humidified incubator containing 5% CO2. […]\nMeasurement of release. […] The reaction was stopped by adding glycine (0.2 M, pH 10.7) into each well and the absorbance was measured. Percentage of β-hexosaminidase release is calculated as the absorbance of the supernatant over that of the combination of supernatant and lysate. […]\nEffects of cold incubation and EDTA treatment on A1 induction and mast cell degranulation. […] (B) and (C) levels of β-hexosaminidase (β-hex) in the supernatants from either control cells or cells stimulated through IgE-receptor cross-linkage for 30 min, in the absence or presence of various concentrations of EDTA (B), or in cold incubation (C), were determined as a measurement of activation and de-granulation by an enzymatic colorimetric assay"}, "A1 gene": {"tested_on": "A1 gene", "assay": "RNAse Protection Assay (RPA) of A1 gene expression in MCP5/L mast cells", "type": "cell-based, mouse", "method": "Activation of mast cells in vitro. For FcεRI-dependent activation, MCP5/L cells were resuspended at 1×10^6 cells/ml and sensitized using a monoclonal murine IgE anti-TNP (trinitrophenyl) (IgEl-b4, ATCC, Manassas, Va.) antibody (15% hybridoma supernatant) for 90 min. The cells were washed twice with warm medium, followed by challenge with 1 μg/ml TNP-BSA for time periods indicated. For cell viability assays, both the anitbody sensitization and the anitgen challenge were performed in RPMI medium supplemented with 0.5% BSA (Sigma) at 37° C. in a humidified incubator containing 5% CO2. For gene regulation studies, all the incubations were carried out in RPMI medium supplemented with 5% fetal bovine serum and antibiotics on a rocker platform. In some experiments, cells were cross-linked in the medium containing 1 mM EDTA or cells were incubated in ice-cold water during FcεRI cross-linking. Where indicated, various inhibitors were introduced to test their effects on A1 regulation after FcεRI cross-linking. These include bisindolylmaleimid (100 nM), wortmannin (100 nM), SB 203580 (pyridinylimidazole compound, inhibitor of p 38 mitogen-activated protein kinase) (1 μM), PD 98059 (2-(2-amino-3-methoxyphenyl)-4-oxo-4H-[1]benzopyran, inhibitor of mitogen-activated protein kinase Kinase-1 (MEK1)) (10 μM), genistein (1 μM), suramin (100 μM), cyclosporin A (2 μg/ml), dexamethasone (1 μM) and cycloheximide (10 μg/ml). Dexamethasone and suramin were added 14 hr and 24 hr, respectively, before IgE sensitization. All the other inhibitors were added at the same time as FcεRI aggregation. […]\nIsolation of RNA and RNAse Protection Assay (RPA) analysis. […] Pixel intensity was determined using a phosphoimaging device. Levels of each gene transcript were quantified by MacBas V2.2 (Fuji Photo Film Co. Ltd., Japan). […]"}, "MCP5/L cells [2]": {"tested_on": "MCP5/L cells", "assay": "Cell viability by trypan blue exclusion in medium deprived of serum and growth factors", "type": "cell-based, mouse", "settings": "4 days in medium deprived of serum and growth factors, FIG. 7", "method": "The growth factor dependent mouse mast cell line MCP5/L was maintained in the same medium described above. For cell viability assays, the cell suspension was mixed with the vital dye, trypan blue, and only the number of live cells was scored.\nFor cell viability assays, both the anitbody sensitization and the anitgen challenge were performed in RPMI medium supplemented with 0.5% BSA (Sigma) at 37° C. in a humidified incubator containing 5% CO2.\nCell viability measurement. Trypan blue exclusion assay was used in all of the cell survival experiments. In brief, cell suspension was mixed with the vital dye, trypan blue, and the number of live cells was scored."}},
  "note": "Where two headings read alike, the source gives them in different places.",
  "data": [
    {"molecule": "O=C(O)CN(CCN(CC(=O)O)CC(=O)O)CC(=O)O", "note": "[EDTA]", "values": [
      {"measurement": "β-hexosaminidase release following FcεRI aggregation in the presence of the compound", "setting": "MCP5/L cells [1]", "result": "inhibit release of mast cell granular enzyme β-hexosaminidase"},
      {"measurement": "A1 induction by FcεRI aggregation in the presence of inhibitor", "setting": "A1 gene", "result": "blocked A1 expression"}
    ]},
    {"molecule": "C[C@@H]1C[C@@H]([C@H](O)CC2CC(=O)NC(=O)C2)C(=O)[C@@H](C)C1", "note": "[cycloheximide]", "values": [
      {"measurement": "A1 induction by FcεRI aggregation in the presence of inhibitor", "setting": "A1 gene; MCP5/L cells, FcεRI crosslinkage 6 hr, wortmannin 100 nM, cyclosporin A 2 μg/ml, cycloheximide 10 μg/ml, dexamethasone 1 μM, EDTA 1 mM, FIG. 8A, 9", "result": "could completely block A1 induction"}
    ]},
    {"molecule": "C[C@H](CCC(=O)O)C[C@H](C)C[C@H](C)C(=O)/C=C(\\O)[C@H](C)C[C@H](C)C/C=C/[C@@H](C)[C@@H](O)[C@@H](C)[C@@H](O)C[C@@H]1CC[C@@](C)([C@H]2CC[C@@](C)([C@@H](C)O)O2)O1", "note": "[ionomycin]", "values": [
      {"measurement": "Survival of mast cells treated with the compound", "setting": "MCP5/L cells [2]", "result": "promoted mast cell survival"},
      {"measurement": "A1 gene expression (transcription) induced by the compound alone", "setting": "A1 gene; MCP5/L cells exposed for 6 hr, c48/80 at concentrations of up to 1 mg/ml, FIG. 7", "result": "induced expression of A1"}
    ]}
  ]
}
